Data as given in patent US20230032101A1, “FIVE-MEMBERED HETEROCYCLIC OXOCARBOXYLIC ACID COMPOUND AND MEDICAL USE THEREOF” (Shanghai Institute of Materia Medica, Chinese Academy of …, priority 2019, published 2023).

Experiments:
Assay type in all cases: cell-based
[1] = tested on: type I interferon pathway (ISG) in human THP1-Blue-ISG cells; experiment: Activation of type I interferon pathway (ISG) in human THP1-Blue-ISG cells (Quanti-Blue, OD650); conditions: 24 h, Compound OD650/Control OD650, ≥2 times considered valid; for fold induction at 10 µM / fold induction at 50 µM: Homo sapiens, THP1-Blue ISG, read-out: Fold Change
Experimental: 20 μL of compound diluted with physiological saline was added to each well of a 96-well cell culture plate, the positive control compound was ADU-S100, and the solvent control group was added with 20 μL of physiological saline containing DMSO. THP1-Blue-ISG cells were counted, the cell concentration was adjusted to 5×10^5/mL, and 180 μL of cells were added to each well for incubation. Therefore, the final volume of each test well was 200 μL, the content of DMSO was 0.1%/0.5%, the test concentration of the compound was 10/50 μM, and the positive control compound was ADU-S100 at a final concentration of 10 μM, and incubated for 24 hours for detection.
After 24 hours, 20 μL of the culture solution was took out from each well to a new 96-well plate, 180 μL of chromogenic solution Quanti-Blue was added, placed in a 37° C. incubator, and the OD650 value was measured after 0.5-2 hours. The experiment was repeated twice.
The experimental results were used to evaluate the ability of compounds to induce the secretion of type I interferon pathway (ISG) by the Fold Change, which was calculated as follows:
Fold Change=Compound OD650/Control OD650, wherein the results of ≥2 times were considered valid.

[2] = tested on: type I interferon pathway in murine Raw-lucia cells; experiment: Activation of type I interferon pathway in murine Raw-lucia cells (QUANTI-Luc luminescence); conditions: Mus musculus, 24 h, Compound Luminescence/Control Luminescence, ≥2 times considered valid, read-out: Fold Change
Experimental: Raw-lucia cells were counted, the cell concentration was adjusted to 5×10^5/mL, and 180 μL of cells were added to each well for incubation. 20 μL of compound diluted with physiological saline was added to each well of a 96-well cell culture plate after cells were adhered, the concentration of the compound was 50 μM/100 μM.
After 24 hours, 20 μL of the culture medium was took out from each well to a new 96-well plate with bottom-transmitting, 50 μL of the luciferase detection reagent QUANTI-Luc™ was added, and the […] was measured immediately (in the dark). The experiment was repeated twice.

[3] = tested on: type I interferon pathway (ISG) in human THP1-Blue-ISG cells; experiment: Activation of type I interferon pathway (ISG) in human THP1-Blue-ISG cells (Quanti-Blue, OD650); conditions: 24 h, Compound OD650/Control OD650, ≥2 times considered valid, read-out: Fold Change

COC(=O)CC(=O)c1cc(-c2c[nH]c3cc(F)ccc23)co1 [Example I-37, methyl 3-(4-(6-fluoro-1H-indol-3-yl)furan-2-yl)-3-oxopropanoate]
fold induction at 10 µM ([1]; 10 μM): 71.5

COC(=O)CC(=O)c1cc(-c2c[nH]c3ccc(F)cc23)co1 [Example I-40, methyl 3-(4-(5-fluoro-1H-indol-3-yl)furan-2-yl)-3-oxopropanoate]
fold induction at 10 µM ([1]; 10 μM): 53.7

COC(=O)CC(=O)c1cc(-c2c[nH]c3ccc(OC)cc23)cs1 [Example I-42, methyl 3-(4-(5-methoxy-1H-indol-3-yl)thiophen-2-yl)-3-oxopropanoate]
fold induction at 10 µM ([1]; 10 μM): 61.8

O=C(O)CC(=O)c1cc(-c2c[nH]c3ccc(F)cc23)cs1 [Example I-4, 3-(4-(5-fluoro-1H-indol-3-yl)thiophen-2-yl)-3-oxopropionic acid]
fold induction at 10 µM ([1]; 10 μM): 9.95

COC(=O)CCC(=O)c1cc(-c2c[nH]c3c(F)cccc23)cs1 [I′-50, Methyl 4-(4-(7-fluoro-1H-indol-3-yl)thiophen-2-yl)-4-oxobutyrate]
fold induction at 10 µM ([1]; 10 μM): 68.1

O=C(O)CCC(=O)c1cc(-c2c[nH]c3c(F)cccc23)cs1 [I′-49, 4-(4-(7-fluoro-1H-indol-3-yl)thiophen-2-yl)-4-oxobutyric Acid]
fold induction at 10 µM ([1]; 10 μM): 10.3 | fold induction at 50 µM [2]: 36.2

COC(=O)CC(=O)c1cc(-c2c[nH]c3ccc(F)cc23)cs1 [Example I-19, methyl 3-(4-(5-fluoro-1H-indol-3-yl)thiophen-2-yl)-3-oxopropionate]
fold induction at 10 µM ([1]; 10 μM): 10

O=C(O)CCC(=O)c1scc(-c2c[nH]c3ccccc23)c1F [I′-56, 4-(3-fluoro-4-(1H-indol-3-yl)thiophen-2-yl)-4-oxobutyric Acid]
fold induction at 50 µM [2]: 12.9 | fold induction at 30 µM [3]: 14.9

COC(=O)CC(=O)c1cc(-c2c[nH]c3cc(F)ccc23)cs1 [Example I-17, methyl 3-(4-(6-fluoro-1H-indol-3-yl)thiophen-2-yl)-3-oxopropionate]
fold induction at 10 µM ([1]; 10 μM): 11

COC(=O)CC(=O)c1cc(-c2c[nH]c3cccc(F)c23)co1 [Example I-39, methyl 3-(4-(4-fluoro-1H-indol-3-yl)furan-2-yl)-3-oxopropanoate]
fold induction at 10 µM ([1]; 10 μM): 59.5

COC(=O)CC(=O)c1cc(-c2coc3ccccc23)co1 [Example I-31, methyl 3-(4-(benzofuran-3-yl)furan-2-yl)-3-oxopropanoate]
fold induction at 30 µM [3]: 43.2

O=C(O)CC(=O)c1cc(-c2c[nH]c3c(F)cccc23)cs1 [Example I-3, 3-(4-(7-fluoro-1H-indol-3-yl)thiophen-2-yl)-3-oxopropionic acid]
fold induction at 10 µM ([1]; 10 μM): 9.82

O=C(O)CCC(=O)c1cc(-c2cccc3sccc23)cs1 [I′-10, 4-(4-(benzo[b]thiophen-4-yl)thiophen-2-yl)-4-oxobutyric Acid]
fold induction at 50 µM [1]: 15.1

O=C(O)CCC(=O)c1cc(-c2coc3cc(F)ccc23)co1 [I′-42, 4-(4-(6-fluorobenzofuran-3-yl)furan-2-yl)-4-oxobutyric Acid]
fold induction at 100 µM [2]: 7.45 | fold induction at 30 µM [3]: 16.8

O=C(O)CCCC(=O)c1cc(-c2c[nH]c3ccccc23)cs1 [Example I-13, 5-(4-(1H-indol-3-yl)thiophen-2-yl)-5-oxopentanoic Acid]
fold induction at 30 µM [3]: 12.6

COC(=O)CC(=O)c1cc(-c2ccc(OC)c(OC)c2)co1 [Example I-34, methyl 3-(4-(3,4-dimethoxyphenyl)furan-2-yl)-3-oxopropanoate]
fold induction at 30 µM [3]: 23.7

O=C(O)CCCC(=O)c1cc(-c2c[nH]c3c(F)cccc23)cs1 [Example I-14, 5-(4-(7-fluoro-1H-indol-3-yl)thiophen-2-yl)-5-oxopentanoic Acid]
fold induction at 50 µM [1]: 1.96

COC(=O)CC(=O)c1cc(-c2ccc3ccoc3c2)co1 [Example I-36, methyl 3-(4-(benzofuran-6-yl)furan-2-yl)-3-oxopropanoate]
fold induction at 30 µM [3]: 29.7

O=C(O)CCC(=O)c1cc(-c2coc3c(F)cccc23)cs1 [I′-55, 4-(4-(7-fluorobenzofuran-3-yl)thiophen-2-yl)-4-oxobutyric Acid]
fold induction at 50 µM [2]: 12.2 | fold induction at 30 µM [3]: 16

CC(CC(=O)c1cc(-c2coc3ccccc23)co1)C(=O)O (centres unmarked) [I′-37, 4-(4-(benzofuran-3-yl)furan-2-yl)-2-methyl-4-oxobutyric Acid]
fold induction at 50 µM [2]: 3.79

COC(=O)CC(=O)c1cc(-c2coc3ccccc23)cs1 [Example I-26, methyl 3-(4-(benzofuran-3-yl)thiophen-2-yl)-3-oxopropanoate]
fold induction at 20 µM ([3]; 20 μM): 14.6

O=C(O)CC(=O)c1cc(-c2c[nH]c3ccccc23)cs1 [Example I-1, 3-(4-(1H-indol-3-yl)thiophen-2-yl)-3-oxopropionic Acid]
fold induction at 10 µM ([1]; 10 μM): 14.3

O=C(O)CCC(=O)c1cc(-c2coc3ccccc23)co1 [I′-17, 4-(4-(benzofuran-3-yl)furan-2-yl)-4-oxobutyric acid]
fold induction at 50 µM [2]: 12.5 | fold induction at 25 µM [3]: 21.6

O=C(O)CC(=O)c1cc(-c2c[nH]c3cc(F)ccc23)cs1 [Example I-2, 3-(4-(6-fluoro-1H-indol-3-yl)thiophen-2-yl)-3-oxopropionic acid]
fold induction at 10 µM ([1]; 10 μM): 11

O=C(O)CCC(=O)c1cc(-c2c[nH]c3c(F)cccc23)co1 [I′-58, 4-(4-(7-fluoro-1H-indol-3-yl)furan-2-yl)-4-oxobutyric Acid]
fold induction at 10 µM ([1]; 10 μM): 4.14 | fold induction at 100 µM [2]: 14.2

O=C(O)CCC(=O)c1cc(-c2c[nH]c3ccc(F)cc23)cs1 [I′-48, 4-(4-(5-fluoro-1H-indol-3-yl)thiophen-2-yl)-4-oxobutyric Acid]
fold induction at 100 µM [2]: 7.63 | fold induction at 30 µM [3]: 14.7

COC(=O)CC(=O)c1cc(-c2c[nH]c3c(F)cccc23)co1 [Example I-38, methyl 3-(4-(7-fluoro-1H-indol-3-yl)furan-2-yl)-3-oxopropanoate]
fold induction at 10 µM ([1]; 10 μM): 77.2

Nc1ncnc2c1ncn2[C@@H]1O[C@@H]2COP(=O)([S-])O[C@@H]3[C@H](O)[C@@H](COP([O-])(=S)O[C@H]2[C@H]1O)O[C@H]3n1cnc2c(N)ncnc21.[Na+].[Na+] (some centres unmarked) [ADU-S100, reference compound]
Fold Change ([1]; 10 μM): 12.45@10 μM

O=C(O)CCC(=O)c1cc(-c2coc3ccccc23)cs1 [I′-14, 4-(4-(benzofuran-3-yl)thiophen-2-yl)-4-oxobutyric Acid]
fold induction at 100 µM [2]: 18.1 | fold induction at 25 µM [3]: 20.7

O=C(O)CCC(=O)c1cc(-c2c[nH]c3cc(F)ccc23)co1 [I′-38, 4-(4-(6-fluoro-1H-indol-3-yl)furan-2-yl)-4-oxobutyric Acid]
fold induction at 10 µM ([1]; 10 μM): 7.15 | fold induction at 50 µM [2]: 7.1

O=C(O)CCC(=O)c1cc(-c2c[nH]c3cc(F)ccc23)cs1 [I′-46, 4-(4-(6-fluoro-1H-indol-3-yl)thiophen-2-yl)-4-oxobutyric Acid]
fold induction at 10 µM ([1]; 10 μM): 11.3 | fold induction at 100 µM [2]: 31.4

COC(=O)CC(=O)c1cc(-c2c[nH]c3ccccc23)cs1 [Example I-16, methyl 3-(4-(1H-indol-3-yl)thiophen-2-yl)-3-oxopropionate]
fold induction at 10 µM ([1]; 10 μM): 14.3

O=C(O)CCC(=O)c1cc(-c2coc3ccc(F)cc23)cs1 [I′-54, 4-(4-(5-fluorobenzofuran-3-yl)thiophen-2-yl)-4-oxobutyric Acid]
fold induction at 100 µM [2]: 4.5

O=C(O)CCC(=O)c1cc(-c2csc3ccccc23)cs1 [I′-4, 4-(4-(benzo[b]thiophen-3-yl)thiophen-2-yl)-4-oxobutyric Acid]
fold induction at 50 µM [1]: 18.4

COC(=O)CC(=O)c1cc(-c2c[nH]c3c(F)cccc23)cs1 [Example I-18, methyl 3-(4-(7-fluoro-1H-indol-3-yl)thiophen-2-yl)-3-oxopropanoate]
fold induction at 10 µM ([1]; 10 μM): 9.8

COC(=O)CC(=O)c1cc(-c2c[nH]c3ccc(OC)cc23)co1 [Example I-43, methyl 3-(4-(5-methoxy-1H-indol-3-yl)furan-2-yl)-3-oxopropanoate]
fold induction at 10 µM ([1]; 10 μM): 23.3

O=C(O)CCC(=O)c1cc(-c2c[nH]c3cccc(F)c23)cs1 [I′-51, 4-(4-(4-fluoro-1H-indol-3-yl)thiophen-2-yl)-4-oxobutyric Acid]
fold induction at 10 µM ([1]; 10 μM): 5.27 | fold induction at 100 µM [2]: 9.75

O=C(O)CCC(=O)c1cc(-c2c[nH]c3ccccc23)co1 [I′-30, 4-(4-(1H-indol-3-yl)furan-2-yl)-4-oxobutyric Acid]
fold induction at 100 µM [2]: 8.13 | fold induction at 12.5 µM ([3]; 12.5 μM): 22.7
